Test results as given in PMC11678873, “Ketoconazole-Fumaric Acid Pharmaceutical Cocrystal: From Formulation Design for Bioavailability Improvement to Biocompatibility Testing and Antifungal Efficacy Evaluation” (International Journal of Molecular Sciences, 2024).

Columns and labels:
BALBc mice [1] = assay: Inflammatory cytokines in treated ear tissue, ELISA (MEST); type: in vivo
Protocol: (§1) For the oxidative stress assessment, the level of malondialdehyde, a marker of lipid peroxidation, was measured from lysates of liver samples (in vivo) and cells-BJ and HepG2 (in vitro), using the Malondialdehyde Colorimetric Assay Kit (TBA Method) provided by ElabScience. Tissue sample homogenates (liver and ear) were prepared as previously described by David et al.. […] Inflammatory reaction was assessed by measurement of the tumor necrosis factor α (TNFα) in liver samples, using the rat TNFα ELISA kit from EIAAB. IL1α and β and IL6 measurement from the mice ear lysates were completed by ELISA, using the respective kits from Quantikine ELISA Immunoassay kit. Tissue homogenate samples were treated according to manufacturer’s instructions; readings were performed at 450 nm with correction wavelength set at 540 nm, using an ELISA plate reader (Tecan, Grödig, Austria).
(§2) On day one, under anesthesia, all mice received 30 µL/mouse of Freund’s complete adjuvant (Thermo Scientific™, Waltham, MA, USA), subcutaneously, in the right flank and the abdominal fur was carefully shaved, without skin abrasion. Then animals were treated with 100 µL of locally applied solution (abdominal skin) of each tested substance, in a concentration of 200 µg mL^−1 solved in ethanol 70%, daily for the first 6 days. The left ear thickness of each mouse was measured with an electronic caliper (initial value). Each mouse was treated with 50 µL/ear of the same solution on the left ear pinnae on day 7—challenge and on day 14—rechallenge. Ear thickness was measured at 24 h and 48 h after challenge and rechallenge, respectively. Then mice were humanely sacrificed, under anesthesia, and ears were collected for inflammatory markers (IL1α, IL1β and IL6) assessment and histopathology.

BALBc mice [2] = assay: Histopathology of ear sections (MEST); type: in vivo
Protocol: as §2
(§3) For histopathological examination, the collected samples (liver and ears) were fixed in 10% buffered neutral formalin, embedded in paraffin, cut at 4 micrometer thickness, and stained using the Hematoxylin–Eosin (H&E) method. The slides were examined under a BX51 Olympus microscope, and images were taken with an Olympus UC 30 digital camera (Olympus, Hamburg, Germany) and processed using the Olympus Stream Basic program.

[3] = system: HepG2 hepatocarcinoma cells; assay: Cell viability, MTS assay, HepG2 hepatocarcinoma cells; type: cell-based, human; conditions: for cell viability (effect in words): HepG2, 24 h, Figure 4; for IC50: Homo sapiens, HepG2 hepatocarcinoma cells, 24 h exposure, range 0.01–100 µM, MTS
Protocol: (§4) Dermal fibroblasts (BJ-ATCC CRL-2522™) and hepatocarcinoma cells (HepG2-HB-8065, ATCC, Gaithersburg, MD, USA) were employed. Cell culture medium used was Dulbecco modified Eagle medium (DMEM) supplemented with 5% FCS-fetal calf serum, 50 µg mL^−1 gentamycin, and 5 ng mL^−1 amphotericin, all from Biochrom AG (Berlin, Germany). Medium was changed twice a week. For all experiments, a medium with 2% FCS was used. […] The final concentration of DMSO in the solutions added to the cells was lower than 0.05%, without negative viability effects. Viability was measured using the MTS assay CellTiter 96® AQueous Non-Radioactive Cell Proliferation Assay from (Promega Corporation, Madison, WI, USA), as indicated by the producer. […] Negative controls were treated with medium. Viability was measured through colorimetry, using an ELISA plate reader (Tecan, Männedorf, Switzerland) at 540 nm. All experiments were performed in triplicate. […] Inhibitory concentration (IC50) was calculated. The statistical difference between experimental groups was evaluated by nonparametric Kruskal–Wallis test, followed by Dunns post-test; the statistical significance of the treatments and time exposure within the experimental groups was tested using two-way ANOVA, followed by Bonferroni post-tests; results were considered significant for p < 0.05. […] Statistical package used for data analysis was Prism version 4.00 for Windows, GraphPad Software, San Diego, CA, USA, www.graphpad.com. For IC50 calculation of the cell viability in vitro, the AAT Bioquest was used.

humans = conditions: 75 subjects, 500 mg daily for one year; cited from earlier work
BJ dermal fibroblasts [4] = assay: Oxidative damage, malondialdehyde (MDA) in cell lysates, BJ; type: cell-based, human; conditions: 6 µM, 24 h, vs untreated controls
Protocol: as §1, with “Oxidative stress-induced damage was assessed in vitro by malondialdehyde (MDA) measurement from cell lysates. […] Cell lysates were then prepared as described. The concentration of 6 μM was chosen to mimic the clinical scenario [47]. […] For” for “For”, “manufacturer's” for “manufacturer’s”

[5] = system: HepG2 hepatocarcinoma cells; assay: Oxidative damage, malondialdehyde (MDA) in cell lysates, HepG2; type: cell-based, human; conditions: HepG2, 6 µM, 24 h, vs untreated controls
Protocol: as §1, with “Oxidative stress-induced damage was assessed in vitro by malondialdehyde (MDA) measurement from cell lysates. […] Cell lysates were then prepared as described. The concentration of 6 μM was chosen to mimic the clinical scenario [47]. […] For” for “For”, “manufacturer's” for “manufacturer’s”

Candida albicans = system: Candida albicans; parameters: method as in PMID 1799950; conditions: ICR mice, systemic Candida albicans infections, intraperitoneal; cited from earlier work
BJ dermal fibroblasts [6] = assay: Cell viability, MTS assay, BJ dermal fibroblasts; type: cell-based, human; conditions: for cell viability (effect in words): BJ, 24 h, Figure 4; for IC50: Homo sapiens, Fibroblast, BJ dermal fibroblasts, 24 h exposure, range 0.01–100 µM, MTS
Protocol: as §4

[7] = parameters: method as in PMID 3767339; conditions: healthy humans, therapeutic oral dose of 200 mg KTZ; cited from earlier work
[8] = Wistar rats, one oral dose 20 mg kg^−1 bw
Protocol: (§5) Regarding HPLC-MS Quantification, serum samples were processed according to the modified protocol described by Wang et al. [99]. According to this protocol, 0.5 mL of serum was extracted into 3 mL of ethyl acetate by shaking for 3 min, after which the mixture was centrifuged for 8 min at 4000 rpm. The organic layer, after being transferred to a clean tube, was evaporated at 37 °C under a stream of nitrogen. The residue was resuspended in 100 μL acetonitrile and then analyzed using a LC2010 Shimadzu (Shimadzu, Kyoto, Japan) high-performance liquid chromatograph, equipped with diode array (DAD) and quadrupole mass spectrometer (MS) detectors.
(§6) Chromatographic separation was performed on a Grace Alltima C18 column (100 × 3 mm, 3 μm), at a temperature of 40 °C, using acetonitrile-water mixture 1:1 (V/V) with 0.1% formic acid as the mobile phase. The elution was carried out isocratically with 0.4 mL min^−1 flow rate. The injected sample volume was 10 μL. The mass spectrometer parameters were the capillary voltage of 1.5 kV, desolvation temperature of 250 °C, and interface temperature of 200 °C.

BALBc mice [9] = conditions: mouse, in vivo
in vivo = conditions: female, Wistar, rat, po, 20 mg/kg
Protocol: as §5, §6

Wistar rats = assay: Liver histopathology (HE stain); type: in vivo; conditions: oral 20 mg kg^−1 bw, 30 min, 24 h, 7 days
Protocol: Adult female Wistar rats, 3 months old (200 g body weight), were kept in standard cages type II, 5 animals/cage, in constant conditions of humidity (65%), temperature (21 °C), and day/night cycles of 12 h, fed with standard food (Cantacuzino Institute, Bucharest, Romania) and water ad libitum. […] […] Blood and liver samples were collected.
For the histopathological examination, the liver samples collected from the left lateral lobe and right medial lobe were fixed in 10% buffered neutral formalin, embedded in paraffin, cut at 4 µm thickness, and stained using the Hematoxylin–Eosin (H&E) staining method. The slides were examined under a BX51 Olympus microscope, and images were taken with an Olympus UC 30 digital camera (Olympus, Hamburg, Germany) and processed using the Olympus Stream Basic program.
as §3

[10] = BALBc mice, ear collected at R48 h, ELISA, vs control
[11] = BALBc mice, after MEST, HE stain

O=[N+]([O-])c1ccc(Cl)c([N+](=O)[O-])c1 [DNCB, dinitrochlorobenzene]
IL1α in treated ear tissue (BALBc mice [1]; [10]): significant increase | IL1β in treated ear tissue (BALBc mice [1]; [10]): significant increase | IL6 in treated ear tissue (BALBc mice [1]; [10]): significant increase | histology of ear pinna (BALBc mice [2]; [11]): contact dermatitis

O=C(O)/C=C/C(=O)O [FUM, trans-2-butenedioic acid]
cell viability (effect in words) [3]: minimal effect | IC50 [3]: 3.19 µM | IL1α in treated ear tissue (BALBc mice [1]; mouse, in vivo): decreased | IL1β in treated ear tissue (BALBc mice [1]; mouse, in vivo): decreased | IL6 in treated ear tissue (BALBc mice [1]; mouse, in vivo): increased | adverse effects in humans (humans): no evidence of adverse effects | malondialdehyde (MDA), marker for lipid peroxidation (BJ dermal fibroblasts [4]): smaller effect | malondialdehyde (MDA), marker for lipid peroxidation [5]: slightly increased | survival of infected mice (Candida albicans): prolonged survival and prevented one-fifth of deaths | histology of ear pinna (BALBc mice [2]; mouse, in vivo): No histological changes | cell viability (effect in words) (BJ dermal fibroblasts [6]): minimal effect | IC50 (BJ dermal fibroblasts [6]): 7.26 µM

CC(=O)N1CCN(c2ccc(OCC3COC(Cn4ccnc4)(c4ccc(Cl)cc4Cl)O3)cc2)CC1 (stereo not drawn) [KTZ, cis-1-acetyl-4-[4-[[(2RS,4SR)-2-(2,4-dichlorophenyl)-2-(1H-imidazol-1-ylmethyl)-1,3-dioxolan-4-yl]methoxy]phenyl]piperazine]
cell viability (effect in words) [3]: decreased | IC50 [3]: 7.48 µM | plasma concentration [7]: 5.85 µM | IL1α in treated ear tissue (BALBc mice [1]; [10]): decreased | IL1β in treated ear tissue (BALBc mice [1]; [10]): decreased | IL6 in treated ear tissue (BALBc mice [1]; [10]): increased | malondialdehyde (MDA), marker for lipid peroxidation (BJ dermal fibroblasts [4]): decreased | detection in plasma over time [8]: not detected after 6 h | epicutaneous sensitization, ear thickness (BALBc mice [9]): did not induce any allergic reactions | malondialdehyde (MDA), marker for lipid peroxidation [5]: decreased | AUC(0-t) (in vivo): 3820 ng·h/mL | Cmax (in vivo; Cmax, Wistar rats, one oral dose 20 mg kg^−1 bw, serum): 5820 ± 700 ng/mL | liver histopathology (Wistar rats): normal hepatic architecture | histology of ear pinna (BALBc mice [2]; [11]): No histological changes | cell viability (effect in words) (BJ dermal fibroblasts [6]): decreased | IC50 (BJ dermal fibroblasts [6]): 7.45 µM
